Data: PubChem BioAssay AID1963961 (Molecular Pharmacology Branch, DTP, NCI, 2024)
Values belong to the compound of their own block, whether it stands above or below them.

Tested on: K98450-129-R-PDC multicell spheroids, viability
Assay: Anticancer human tumor K98450-129-R-PDC patient-derived colon adenocarcinoma cell line growth inhibition [PI3K]
Conditions: for IC50: curve of first compound; for viability, T/C: stronger effect = lower value
Excerpt: Combinatorial screen of targeted agents with the PI3K inhibitors inavolisib, alpelisib, duvelisib, and copanlisib in multi-cell type tumor spheroids
A high-throughput screen of multi-cell type tumor spheroids was designed to identify active combinations of targeted small molecules and PI3K pathway inhibitors. Complex spheroids include a stromal component modeled by human endothelial cells (HUVEC) and fibroblasts modeled by human mesenchymal stem cells (MSCs). The concentration ranges selected for each drug and investigational agent were based upon clinically achievable concentrations if the clinical Cmax of the agent was known.
Compounds. The drugs and investigational agents: inavolisib (NSC800729), alpelisib (NSC765974), duvelisib (NSC772469), copanlisib (NSC816437), ipatasertib (NSC767898), afuresertib (NSC778305), talazoparib (NSC767125), sapanisertib (NSC764658), selumetinib (NSC741078), tovorafenib (DAY101, NSC766906), vemurafenib (NSC761431), ravoxertinib (NSC781343), sotorasib (NSC818433), MRTX1133 (NSC 836407), abemaciclib (NSC 768073), palbociclib (NSC758247), venetoclax (NSC 766270), SY5609 (NSC837396), enzalutamide (NSC755605), and darolutamide (NSC825331), were obtained from the National Cancer Institute (NCI) Developmental Therapeutics Program Chemical Repository. The FDA-approved anticancer drug set is available from the NCI Developmental Therapeutics Program. […] The stock solutions were prepared in dimethyl sulfoxide (DMSO, Sigma-Aldrich, St. Louis, MO, cat. D2650) at 800-fold the tested concentration and stored at -70 degrees C prior to their use. All drugs and investigational agents were tested over a range starting from a high concentration at or near the clinical Cmax and decreasing in half-log increments. If the clinical Cmax for an agent had not been determined, the highest concentration tested was 10 microM.
Cell Culture. All cells were maintained in an incubator at 37 degrees C and 5% CO2 with 95% humidity. The PDC lines were cultured according to standard operating procedures established by the NCI PDMR (https://pdmr.cancer.gov/sops/default.htm). All PDCs were thawed and cultured in Matrigel-coated flasks prepared with a working solution of 1X Ham's F-12 nutrient mix, without supplementation (Invitrogen, Waltham, MA, cat. 11765054), 100 U/mL penicillin-streptomycin (Invitrogen, cat. 15140122), and 2.5% Matrigel (Corning Inc., Corning, NY, cat. 354248) for the first three passages. The 354836-022-R-J1-PDC, 475296-252-R-J1-PDC, and 997726-040-R-J2-PDC lines were cultured in 6A media, which includes advanced DMEM/F-12 (Thermo Fisher Scientific, cat. 12634028), 10 mM HEPES (Thermo Fisher Scientific, cat. 15630080), 1X GlutaMAX supplement (Thermo Fisher Scientific, cat. 35050061), 0.1 mg/mL primocin (InvivoGen, San Diego, CA, cat. ant-pm-2), 10% defined fetal bovine serum, heat inactivated (HyClone Laboratories Inc., Logan, UT, cat. SH30070.03HI), 50% L-WRN conditioned media (ATCC, cat. CRL-3276), 1.25 mM N-Acetyl-L-cysteine (Sigma-Aldrich, cat. A9165), 10 mM nicotinamide (Sigma-Aldrich, cat. N0636), 1X B-27 supplement (Thermo Fisher Scientific, cat. 17504044), 1X N-2 supplement (Thermo Fisher Scientific, cat. 17502048), and 10 microM Y-27632 dihydrochloride (Tocris Bioscience, Bristol, United Kingdom, cat. 1254). The 624824-186-R-J2-PDC line was cultured in 6C/Colon 1B media, which includes all 6A media components plus 50 ng/mL human EGF recombinant protein (Thermo Fisher Scientific, cat. PHG0311). […]

[1] = second compound 0.0316 µM, first compound 0.0316 µM
[2] = second compound 0.0316 µM, first compound 0.1 µM
[3] = second compound 0.1 µM, first compound 0.0316 µM
[4] = second compound 0.1 µM, first compound 0.1 µM
[5] = second compound 0.316 µM, first compound 0.0316 µM
[6] = second compound 0.316 µM, first compound 0.1 µM
[7] = second compound 1 µM, first compound 0.0316 µM
[8] = second compound 1 µM, first compound 0.1 µM
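Further: spheroids exposed to agents for seven days before read-out.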

IC50 (second compound 0.00316 µM): > 10 µM
IC50 (second compound 0.01 µM): > 10 µM
IC50 (second compound 0.0316 µM): > 10 µM
IC50 (second compound 0.1 µM): > 10 µM
IC50 (second compound 0.316 µM): > 10 µM
IC50 (second compound 1 µM): > 10 µM
SMILES: Cn1ncc(Cl)c1-c1cc(C(=O)NC(CN)Cc2cccc(F)c2)sc1Cl (centres undefined) + CC(Nc1ccc2c(c1)OCCn1cc(N3C(=O)OCC3C(F)F)nc1-2)C(N)=O
viability, T/C (second compound 0.00316 µM, first compound 0.0316 µM): 106%
viability, T/C (second compound 0.00316 µM, first compound 0.1 µM): 98.2%
viability, T/C (second compound 0.00316 µM, first compound 0.316 µM): 105%
viability, T/C (second compound 0.00316 µM, first compound 1 µM): 95.3%
viability, T/C (second compound 0.00316 µM, first compound 3.16 µM): 93.6%
viability, T/C (second compound 0.00316 µM, first compound 10 µM): 97.2%
viability, T/C (second compound 0.01 µM, first compound 0.0316 µM): 109%
viability, T/C (second compound 0.01 µM, first compound 0.1 µM): 102%
viability, T/C (second compound 0.01 µM, first compound 0.316 µM): 110%
viability, T/C (second compound 0.01 µM, first compound 1 µM): 95.9%
viability, T/C (second compound 0.01 µM, first compound 3.16 µM): 97.6%
viability, T/C (second compound 0.01 µM, first compound 10 µM): 102%
viability, T/C [1]: 109%
viability, T/C [2]: 109%
viability, T/C (second compound 0.0316 µM, first compound 0.316 µM): 99.4%
viability, T/C (second compound 0.0316 µM, first compound 1 µM): 102%
viability, T/C (second compound 0.0316 µM, first compound 3.16 µM): 90.3%
viability, T/C (second compound 0.0316 µM, first compound 10 µM): 99.3%
viability, T/C [3]: 88.7%
viability, T/C [4]: 102%
viability, T/C (second compound 0.1 µM, first compound 0.316 µM): 103%
viability, T/C (second compound 0.1 µM, first compound 1 µM): 97.5%
viability, T/C (second compound 0.1 µM, first compound 3.16 µM): 97.1%
viability, T/C (second compound 0.1 µM, first compound 10 µM): 95%
viability, T/C [5]: 85.7%
viability, T/C [6]: 100%
viability, T/C (second compound 0.316 µM, first compound 0.316 µM): 95.9%
viability, T/C (second compound 0.316 µM, first compound 1 µM): 95.6%
viability, T/C (second compound 0.316 µM, first compound 3.16 µM): 98.7%
viability, T/C (second compound 0.316 µM, first compound 10 µM): 92.9%
viability, T/C [7]: 87.1%
viability, T/C [8]: 85.9%
viability, T/C (second compound 1 µM, first compound 0.316 µM): 91.9%
viability, T/C (second compound 1 µM, first compound 1 µM): 94.4%
viability, T/C (second compound 1 µM, first compound 3.16 µM): 91%
viability, T/C (second compound 1 µM, first compound 10 µM): 85.7%

IC50 (second compound 0.0316 µM): > 0.1 µM
IC50 (second compound 0.1 µM): > 0.1 µM
IC50 (second compound 0.316 µM): > 0.1 µM
IC50 (second compound 1 µM): > 0.1 µM
IC50 (second compound 3.16 µM): > 0.1 µM
IC50 (second compound 10 µM): > 0.1 µM
SMILES: CC(C)n1nc(-c2ccc3oc(N)nc3c2)c2c(N)ncnc21 + Cc1nc(NC(=O)N2CCCC2C(N)=O)sc1-c1ccnc(C(C)(C)C(F)(F)F)c1
viability, T/C (second compound 0.0316 µM, first compound 0.000316 µM): 102%
viability, T/C (second compound 0.0316 µM, first compound 0.001 µM): 97.8%
viability, T/C (second compound 0.0316 µM, first compound 0.00316 µM): 101%
viability, T/C (second compound 0.0316 µM, first compound 0.01 µM): 91.2%
viability, T/C [1]: 87.2%
viability, T/C [2]: 75.3%
viability, T/C (second compound 0.1 µM, first compound 0.000316 µM): 106%
viability, T/C (second compound 0.1 µM, first compound 0.001 µM): 95.3%
viability, T/C (second compound 0.1 µM, first compound 0.00316 µM): 99.5%
viability, T/C (second compound 0.1 µM, first compound 0.01 µM): 91%
viability, T/C [3]: 88.8%
viability, T/C [4]: 79.9%
viability, T/C (second compound 0.316 µM, first compound 0.000316 µM): 95.8%
viability, T/C (second compound 0.316 µM, first compound 0.001 µM): 99.5%
viability, T/C (second compound 0.316 µM, first compound 0.00316 µM): 89.2%
viability, T/C (second compound 0.316 µM, first compound 0.01 µM): 90.2%
viability, T/C [5]: 86.4%
viability, T/C [6]: 72.3%
viability, T/C (second compound 1 µM, first compound 0.000316 µM): 88.6%
viability, T/C (second compound 1 µM, first compound 0.001 µM): 89.5%
viability, T/C (second compound 1 µM, first compound 0.00316 µM): 92.8%
viability, T/C (second compound 1 µM, first compound 0.01 µM): 80.2%
viability, T/C [7]: 81.9%
viability, T/C [8]: 70%
viability, T/C (second compound 3.16 µM, first compound 0.000316 µM): 79.4%
viability, T/C (second compound 3.16 µM, first compound 0.001 µM): 78%
viability, T/C (second compound 3.16 µM, first compound 0.00316 µM): 79.5%
viability, T/C (second compound 3.16 µM, first compound 0.01 µM): 70.8%
viability, T/C (second compound 3.16 µM, first compound 0.0316 µM): 77.9%
viability, T/C (second compound 3.16 µM, first compound 0.1 µM): 61.2%
viability, T/C (second compound 10 µM, first compound 0.000316 µM): 66.1%
viability, T/C (second compound 10 µM, first compound 0.001 µM): 70.9%
viability, T/C (second compound 10 µM, first compound 0.00316 µM): 69.8%
viability, T/C (second compound 10 µM, first compound 0.01 µM): 71.9%
viability, T/C (second compound 10 µM, first compound 0.0316 µM): 64.3%
viability, T/C (second compound 10 µM, first compound 0.1 µM): 59.2%
